The values below come from ChEMBL document CHEMBL1123145, “Synthesis of pyrrolizidine alkaloids indicine, intermedine, lycopsamine, and analogues and their N-oxides. Potential antitumor agents” (1985).

Common to all, as to format: functional, Mus musculus
The test system of experiment [1] is P388. The experiment is described as follows: Survival rate of the animals determined for antitumor activity against P388 Lymphocytic Leukemia system at a dose of 70 mg/kg.
Experiment [2] relates to P388. The experiment is described as follows: Weight difference observed in survivors treated for antitumor activity against P388 Lymphocytic Leukemia system at a dose of 35 mg/kg.
Experiment [3] concerns P388. Nature of the experiment: Weight difference observed in survivors treated for antitumor activity against P388 Lymphocytic Leukemia system at a dose of 17.5 mg/kg.
Experiment [4] relates to P388. Nature of the experiment: Number of Survivors determined for antitumor activity against P388 Lymphocytic Leukemia system on day 5 at a dose of 35 mg/kg (6 out of 6).
In experiment [5] the test system is P388. Nature of the experiment: Weight difference observed in survivors treated for antitumor activity against P388 Lymphocytic Leukemia system at a dose of 70 mg/kg.
The subject of experiment [6] is P388. Nature of the experiment: Weight difference observed in survivors treated for antitumor activity against P388 Lymphocytic Leukemia system at a dose of 8.75 mg/kg.
The test system of experiment [7] is P388. The experiment is described as follows: Number of Survivors determined for antitumor activity against P388 Lymphocytic Leukemia system on day 5 at a dose of 70 mg/kg(6 out of 6).
The test system of experiment [8] is P388. Nature of the experiment: Survival rate of the animals determined for antitumor activity against P388 Lymphocytic Leukemia system at a dose of 35 mg/kg.
Experiment [9] relates to P388. Nature of the experiment: Number of Survivors determined for antitumor activity against P388 Lymphocytic Leukemia system on day 5 at a dose of 8.75 mg/kg(6 out of 6).
The test system of experiment [10] is P388. Nature of the experiment: Survival rate of the animals determined for antitumor activity against P388 Lymphocytic Leukemia system at a dose of 8.75 mg/kg.
Experiment [11] concerns P388. Nature of the experiment: Survival rate of the animals determined for antitumor activity against P388 Lymphocytic Leukemia system at a dose of 17.5 mg/kg.
Experiment [12] deals with P388. The experiment is described as follows: Number of Survivors determined for antitumor activity against P388 Lymphocytic Leukemia system on day 5 at a dose of 17.5 mg/kg (6 out of 6).
In experiment [13] the test system is P388. Nature of the experiment: Survival rate of the animals determined for antitumor activity against P388 Lymphocytic Leukemia system at a dose of 96 mg/kg.
Experiment [14] concerns P388. The experiment is described as follows: Weight difference observed in survivors treated for antitumor activity against P388 Lymphocytic Leukemia system at a dose of 48 mg/kg.
In experiment [15] the test system is P388. The experiment is described as follows: Survival rate of the animals determined for antitumor activity against P388 Lymphocytic Leukemia system at a dose of 192 mg/kg.
Experiment [16] has as its system P388. Nature of the experiment: Weight difference observed in survivors treated for antitumor activity against P388 Lymphocytic Leukemia system at a dose of 24 mg/kg.
For experiment [17], the system named is P388. The experiment is described as follows: Survival rate of the animals determined for antitumor activity against P388 Lymphocytic Leukemia system at a dose of 48 mg/kg.
The subject of experiment [18] is P388. Nature of the experiment: Survival rate of the animals determined for antitumor activity against P388 Lymphocytic Leukemia system at a dose of 24 mg/kg.
Experiment [19] has as its system P388. The experiment is described as follows: Weight difference observed in survivors treated for antitumor activity against P388 Lymphocytic Leukemia system at a dose of 96 mg/kg.

The structures appear in SMILES notation.

The term T/C denotes the result in the treated group divided by that in the control group, in per cent.

Turning to `O=C(OCC1=CC[N+]2([O-])CC[C@@H](O)C12)c1ccccc1` (some centres undefined), the T/C with P388 [1] worked out at 118%; with P388 [8], 109%; in the experiment with P388 [10] it was 107%; with P388 [11] it was 110%. Also, the T-C in the experiment with P388 [2] is -0.1; in the experiment on P388 [3] it was -0.7; in the experiment with P388 [5], -1; with P388 [6], -0.4. For the same compound, the Survivors with P388 [4], in the experiment with P388 [7], in the experiment on P388 [9] and in the experiment with P388 [12] was 6 throughout.

As to `CC(C)C(O)(C(=O)OCC1=CC[N+]2([O-])CC[C@@H](O)C12)C(C)O` (stereo in doubt; form 1), the T/C in the experiment with P388 [13] turned out to be 114%; in the experiment with P388 [15] it was 123%; in the experiment with P388 [17], 114%; in the experiment with P388 [18], 107%. Also, the T-C with P388 [14] is -0.6; in the experiment with P388 [16] it was 0; in the experiment on P388 [19], -0.3.
